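Values below derive from 48-hour exposures of cells grown in 96-well plates, with endpoints linearly interpolated between the two concentrations bracketing the appropriate inhibition level. The concentration for 50% growth inhibition is given as GI50.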 Calls of active or inactive are those of the source. Cut-off read from the data, not from the text of the source: active = GI50 up to about 1.1 µM and inactive = higher.
How the values were obtained:
Test in all cases: NCI anticancer screen, dose series, 48 h
UACC-62 = system: UACC-62
HOP-62 = system: HOP-62
HCT-15 = system: HCT-15
OVCAR-3 = system: OVCAR-3
NCI-H226 = system: NCI-H226
SNB-75 = system: SNB-75
MDA-MB-231 = system: MDA-MB-231
SNB-19 = system: SNB-19
SW-620 = system: SW-620
786-0 = system: 786-0
SN12C = system: SN12C
OVCAR-8 = system: OVCAR-8
NCI-H522 = system: NCI-H522
CAKI-1 = system: CAKI-1
COLO 205 = system: COLO 205
IGROV-1 = system: IGROV-1
SF-268 = system: SF-268
UO-31 = system: UO-31
HT-29 = system: HT-29
SF-539 = system: SF-539

| SMILES | GI50 (UACC-62) | GI50 (HOP-62) | GI50 (HCT-15) | GI50 (OVCAR-3) | GI50 (NCI-H226) | GI50 (SNB-75) | GI50 (MDA-MB-231) | GI50 (SNB-19) | GI50 (SW-620) | GI50 (786-0) | GI50 (SN12C) | GI50 (OVCAR-8) | GI50 (NCI-H522) | GI50 (CAKI-1) | GI50 (COLO 205) | GI50 (IGROV-1) | GI50 (SF-268) | GI50 (UO-31) | GI50 (HT-29) | GI50 (SF-539) |
| --- | --- | --- | --- | --- | --- | --- | --- | --- | --- | --- | --- | --- | --- | --- | --- | --- | --- | --- | --- | --- |
| Oc1c2c(nc3cc4c(cc13)OCO4)-c1ccccc1CCC2 | > 50 µM (inactive) | > 50 µM (inactive) | > 50 µM | > 50 µM (inactive) | > 50 µM (inactive) | > 50 µM (inactive) | > 50 µM (inactive) | > 50 µM (inactive) | > 50 µM (inactive) | > 50 µM (inactive) | > 50 µM (inactive) | 48.5 µM (inactive) | > 50 µM (inactive) | > 50 µM (inactive) | > 50 µM (inactive) | 30.2 µM (inactive) | > 50 µM (inactive) | > 50 µM (inactive) | 34.4 µM (inactive) | > 50 µM (inactive) |
| CCOc1ccc2ccc3cccnc3c2n1 | 27 µM (inactive) | 18.5 µM (inactive) | 54.3 µM | 21.9 µM (inactive) | 39 µM (inactive) | 85.9 µM (inactive) | 38.4 µM (inactive) | > 100 µM (inactive) | 62.7 µM (inactive) | 66.2 µM (inactive) | > 100 µM (inactive) | 72.8 µM (inactive) | > 100 µM (inactive) | > 100 µM (inactive) | 28.7 µM (inactive) | 38.5 µM (inactive) | > 100 µM (inactive) | 64 µM (inactive) | 34.1 µM (inactive) | > 100 µM (inactive) |
| C/C(=C\CNc1ncnc2c1ncn2CCC#N)CO | > 100 µM (inactive) | > 100 µM (inactive) |  | > 100 µM (inactive) | > 100 µM (inactive) | > 100 µM (inactive) | > 100 µM (inactive) | > 100 µM (inactive) | > 100 µM (inactive) | > 100 µM (inactive) | > 100 µM (inactive) | > 100 µM (inactive) | > 100 µM (inactive) | > 100 µM (inactive) | > 100 µM (inactive) | > 100 µM (inactive) | > 100 µM (inactive) | > 100 µM (inactive) | > 100 µM (inactive) | > 100 µM (inactive) |
| CCc1n[nH]c(=O)n1CCCCCCCCn1c(CC)n[nH]c1=O | > 100 µM (inactive) | > 100 µM (inactive) | > 100 µM | > 100 µM (inactive) | > 100 µM (inactive) | > 100 µM (inactive) | > 100 µM (inactive) | > 100 µM (inactive) | > 100 µM (inactive) | > 100 µM (inactive) | > 100 µM (inactive) | > 100 µM (inactive) | > 100 µM (inactive) | > 100 µM (inactive) | > 100 µM (inactive) | > 100 µM (inactive) | > 100 µM (inactive) | > 100 µM (inactive) | > 100 µM (inactive) | > 100 µM (inactive) |
| O=[N+]([O-])c1c2nc3n(c2cc2c1nc1n2CCC1)CCC3 | > 100 µM (inactive) | > 100 µM (inactive) | > 100 µM | > 100 µM (inactive) | > 100 µM (inactive) | > 100 µM (inactive) | > 100 µM (inactive) | > 100 µM (inactive) | > 100 µM (inactive) | > 100 µM (inactive) | > 100 µM (inactive) | > 100 µM (inactive) | > 100 µM (inactive) | > 100 µM (inactive) | > 100 µM (inactive) | > 100 µM (inactive) | > 100 µM (inactive) | > 100 µM (inactive) | > 100 µM (inactive) | > 100 µM (inactive) |
| Cn1c(C(C#N)c2cc(Cl)ncn2)nc2ccccc21 (stereo not drawn) |  | > 100 µM (inactive) | > 100 µM | > 100 µM (inactive) | > 100 µM (inactive) | > 100 µM (inactive) | > 100 µM (inactive) | > 100 µM (inactive) | > 100 µM (inactive) | > 100 µM (inactive) | > 100 µM (inactive) | > 100 µM (inactive) | > 100 µM (inactive) | > 100 µM (inactive) | > 100 µM (inactive) | > 100 µM (inactive) | > 100 µM (inactive) | > 100 µM (inactive) | > 100 µM (inactive) | > 100 µM (inactive) |
| CCOC(=O)C1=NN(c2ccccc2)C(=O)/C1=C\NC(=S)C(N)=S | 29.3 µM (inactive) | > 100 µM (inactive) | 34.1 µM | 38.5 µM (inactive) | 54.5 µM (inactive) | 47.3 µM (inactive) | 65.2 µM (inactive) | 64.9 µM (inactive) | 38.5 µM (inactive) | 20.7 µM (inactive) | 37.8 µM (inactive) | 45.5 µM (inactive) | 16.6 µM (inactive) | 38.1 µM (inactive) | 28.1 µM (inactive) | 42.6 µM (inactive) | 38.5 µM (inactive) | 19.2 µM (inactive) | 41.8 µM (inactive) | 23.2 µM (inactive) |
